# Data as given in patent publication US5968751A, “Method for detecting the presence of protein C antibody in a fluid sample” (The Scripps Research Institute, priority 1997, dated 1999).
# No end group written: not given here.
# Assays:
# APC [1] = target: T1, APC (Homo sapiens, UniProt P04070); test: amidolytic activity of APC towards S-2366; type: biochemical; parameters: Protein C consists of a 155 amino acid residue light chain and a 262 amino acid residue heavy chain; from tissue; host or cells: human plasma factor IX concentrate; conditions: for Change in A405 /5 minutes: 10 nM APC, 250 μM PC311-325, 500 μM PC142-155, 30 minutes at 37° C., S-2366
# T1 sequence (P04070 43-197 limits assumed): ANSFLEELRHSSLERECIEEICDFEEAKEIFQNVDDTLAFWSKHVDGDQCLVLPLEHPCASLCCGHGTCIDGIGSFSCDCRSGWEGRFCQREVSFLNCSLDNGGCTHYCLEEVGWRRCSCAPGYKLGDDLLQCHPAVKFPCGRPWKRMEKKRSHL
# T1 sequence (P04070 212-450 limits assumed): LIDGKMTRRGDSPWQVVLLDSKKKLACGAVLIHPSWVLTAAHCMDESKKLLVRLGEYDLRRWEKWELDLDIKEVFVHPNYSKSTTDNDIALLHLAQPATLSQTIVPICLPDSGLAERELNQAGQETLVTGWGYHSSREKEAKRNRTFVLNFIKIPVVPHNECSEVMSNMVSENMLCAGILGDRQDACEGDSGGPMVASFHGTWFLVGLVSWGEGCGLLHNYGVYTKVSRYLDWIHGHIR
# Experimental: The amidolytic activity of APC toward the peptide substrate S-2366 was measured in the presence of various PC synthetic peptides derived from both the heavy and light chain, prepared in Example 1. For the assay, 100 μl of 10 nM APC, prepared in Example 2c2), were admixed with separate aliquots of 250 μM of PC311-325 and 500 μM Df PC142-155 prepared in TBS-BSA at pH 7.4 containing 0.02% NaN3 and 2 mM CaCl2 to form APC-peptide admixtures. After maintenance of the admixtures for 30 minutes at 37° C., 50 μl of 2.4 mM S-2366 in the same buffer were admixed to initiate the amidolytic reaction. The hydrolysis of the substrate was monitored by the change in absorbance at 405 nm at 37° C. over time using an EL312 Microplate Bio-Kinetics Reader (BIO-TEK Instruments, Inc. Vermont.). All data are mean values of duplicate measurements.
# The amidolytic activity of APC toward the peptide substrate S-2366 was measured in the presence of anti-PC317-331 antibody. For the assay, 100 μl of 15 nM APC, prepared in Example 2c2), were admixed with separate aliquots of anti-PC317-331 antibody ranging in concentration from […] prepared in TBS-BSA at pH 7.4 containing 0.02% NaN3 and 2 mM CaCl2 to form APC-anti-PC317-331 antibody immunoreaction admixtures. After maintenance of the admixtures for 30 minutes at 37° C. to allow formation of immunoreaction products, 50 μl of 2.4 mM S-2366 in the same buffer was admixed to initiate the amidolytic reaction. The hydrolysis of the substrate was monitored by the change in absorbance at 405 nm over time using an EL312 Microplate Bio-Kinetics Reader (BIO-TEK Instruments, Inc. Vermont.).
# APC [2] = target: T1, APC; test: APTT and Xa-1-stage coagulation assays, inhibition of APC anticoagulant activity; type: biochemical; parameters: Protein C consists of a 155 amino acid residue light chain and a 262 amino acid residue heavy chain; from tissue; host or cells: human plasma factor IX concentrate
# Experimental: The effect of the synthetic peptides on APC anticoagulant activity were determined using the APTT assay in the presence of either normal citrate anticoagulated plasma (NHP) or protein S depleted plasma (PSDP). The assays were performed essentially as described. See Marlar et al., Blood, 59:1067-1072 […]; Suzuki et al., J. Biol. Chem., 258:163-168 (1983); Gruber et al., Blood, 73:639-642 (1989); Ohlin et al., Biochem., 29:644-651 (1990). NHP was purchased from George King Bio-Medical, Inc. (Overland Park, Kans.). PSDP was prepared from a normal human citrate-anticoagulated plasma pool from ten healthy donors. Protein S was immunodepleted from the NHP by immunoaffinity chromatography of NHP over an anti-protein S antibody column to form PSDP. The anti-protein S antibody column was prepared by coupling 100 mg of a monoclonal, high-affinity, calcium-independent anti-PS antibody, designated S7, to 30 ml of CNBr-activated Sepharose 4B (Pharmacia) as described in Example 2cl).
# For the APTT assay, APC was prepared as described in Example 2c2). […] The concentration of the APC used in the assay was initially optimized with respect to the sensitivity of the assay towards APC-induced prolongation of clotting time compared to clotting time without APC.
# Once the optimal concentration of APC was determined, peptides from the heavy and light chains of PC and control scrambled peptides listed below in Example 5a2) in Tables 6 and 7 were then separately admixed for a final concentration of 500 μM with 10 nM APC in 100 μl of TBS-BSA at pH 7.4 to form peptide-APC admixtures. Peptides were prepared as described in Example 1. The resulting admixtures were maintained for ten minutes at 37° C. Separate aliquots of peptides maintained under the same conditions in the absence of APC served as controls for the inhibitory effect of synthetic peptides on APC anticoagulant activity. After the maintenance period, 100 μl of NHP and 100 μl APTT-reagent Thrombosil (Ortho Diagnostics, Raritan, N.J.) were admixed into each peptide admixture and maintained for 200 seconds at 37° C. to form a pre-coagulation admixture. In some experiments, PSDP was used in the place of NHP to determine the effect of Protein S on the assay system. Coagulation was then initiated by the admixture of 100 μl of 30 mM CaCl2 in TBS prewarmed to 37° C. to each of the pre-coagulation admixtures. The time for clot formation was measured by an Electra 700 Automatic Coagulation Timer (Medical Laboratory Automation, Inc., Mount Vernon, N.Y.). Each peptide's effect was determined in duplicate.
# For peptides at a concentration of 500 μM that inhibited at least 50% of APC anticoagulant activity, analysis of dose-response was subsequently conducted.
# For testing the inhibition of the synthetic peptides on APC activity described above, Xa-1-stage coagulation assays were also performed as described. See Seegers et al., Thrombosis Res., 13:233-243 (1978); Marlar et al., supra; and Walker et al., J. Biol. Chem., 265:1484-1489 (1990).
# [3] = mean values of APTT and Xa-1 stage assays, NHP, control peptide at 500 μM (±10%)
IC50 (concentration of peptide that inhibits 50% of APC anticoagulant activity) (APC [2]; [3]),IC90 ** μM (concentration of peptide that inhibits 90% of APC anticoagulant activity) (APC [2]; [3]),effect on APC anticoagulant activity (APC [2]; various concentrations up to 500 μM peptide),Substance,Change in A405 /5 minutes (APC [1]),"effect on APC amidolytic activity towards S-2366 (APC [1]; up to 250 μM PC311-325 or 500 μM PC142-155, 30 min at 37° C.)",90% inhibition of APC anticoagulant activity (APC [2]; APTT and Xa-1-stage assays in NHP and PSDP),"IC50 (APC [2]; APTT and Xa-1-stage assays in NHP and PSDP, read-out: 50% inhibition of APC anticoagulant activity) [µM]"
,,,"KRNRTFVLNFIKIPV-NH2 [PC311-325, Lys-Arg-Asn-Arg-Thr-Phe-Val-Leu-Asn-Phe-Ile-Lys-Ile-Pro-Val]",0.342,no significant effect,approximately 50 μM,7 to 20
no effect,no effect,no significant effect,"VKFTIRVFNPRNLKI [Control Peptide, reference compound]",,,,
,,,"MHKLREGKWRPKSR [Scrambled peptide, reference compound]",0.364,,,
